Assay: Visual observation of solubility in organic solvent with and without CO2 pressure (windowed vessel)
Type: physicochemical
Settings: 35° C.; for solubility in cyclohexane / solubility in CO2-expanded cyclohexane: 64 mg in 5 mL cyclohexane; for solubility in cyclohexane: 1 atm CO2, visual; for solubility in CO2-expanded cyclohexane: CO2 pressure 59 bar
Description: The bis(methanol) adduct of complex 2 (Rh2(O2C(CF2)9F)4(MeOH)2, 64 mg) was placed in a windowed vessel along with a stir bar and 5 mL of cyclohexane, all at 35° C. […] The CO2 under these conditions is not supercritical and in the absence of the cyclohexane would not be liquid. […] When the CO2 pressure was released (slowly, so that the solvent was not lost by entrainment), then the liquid phase returned to its original volume and colour and the complex precipitated. The IR spectrum of the solid was identical to that of the original Rh2(O2C(CF2)9F)4(MeOH)2.
The IR spectrum of the complex after precipitation is identical to that of the starting material. […] For example, complex 3 was insoluble in toluene at 26° C., dissolved in CO2-expanded toluene at 54 bar CO2 and was subsequently precipitated after CO2 release.

[1] = listed as Rh2(O2C(CF2)9F)4(MeOH)2

Q: Which solubility in cyclohexane does the source give for `CO.CO.O=C([O-])C(F)(F)C(F)(F)C(F)(F)C(F)(F)C(F)(F)C(F)(F)C(F)(F)C(F)(F)C(F)(F)F.O=C([O-])C(F)(F)C(F)(F)C(F)(F)C(F)(F)C(F)(F)C(F)(F)C(F)(F)C(F)(F)C(F)(F)F.O=C([O-])C(F)(F)C(F)(F)C(F)(F)C(F)(F)C(F)(F)C(F)(F)C(F)(F)C(F)(F)C(F)(F)F.O=C([O-])C(F)(F)C(F)(F)C(F)(F)C(F)(F)C(F)(F)C(F)(F)C(F)(F)C(F)(F)C(F)(F)F.[Rh+3].[Rh+3]` [bis(methanol) adduct of complex 2, Rh2(O2C(CF2)9F)4(MeOH)2] here?
A: completely insoluble

Q: What about the solubility in cyclohexane [1] of the same compound?
A: insoluble

Q: And the “solubility in CO2-expanded cyclohexane” value?
A: complete dissolution

Q: And the “solubility in CO2-expanded cyclohexane” value [1]?
A: dissolves readily

Q: What about the “solubility in gaseous CO2 (upper phase)” value (59 bar CO2, upper gaseous phase showed no discoloration) of the same compound?
A: no solubility

From patent US7404943B2, “Methods for solubilizing and recovering fluorinated compounds” (The Regents of the University of California, priority 2001, dated 2008)
